Reference: PMC2605449, “Modification of carbonic anhydrase II with acetaldehyde, the first metabolite of ethanol, leads to decreased enzyme activity” (BMC Biochemistry, 2008)

Target: T1, recombinant human CA II (carbonic anhydrase isozyme II) (Homo sapiens, UniProt P00918, S2A)
T1 construct: gene CA2; recombinant in E. coli, full length, initiator Met removed, second residue Ser changed to Ala by cloning
Assay: end-point titration (Maren) with spectrophotometric colour determination
Type: biochemical
Settings: covalent; pretreated […] h at […] °C, […] NaBH3(CN) added after […] h (N-ethyllysine adducts); CO2 substrate, ice-cold

In the case of `CC=O` [acetaldehyde], the “% reduction in activity at 100 mM” value is reported as 23.7%.
